Test results reported in patent publication US8734775B2, “Chemokine derived peptides that bind with chemokine receptor CXCR3 and uses for chronic wound and angiogenesis inhibition treatments” (University of Pittsburgh, priority 2011, dated 2014).

Columns and labels:
[1] = test system: VEGF-induced newly formed vessels; assay: In vivo Matrigel plug assay, regression of newly formed vessels; set-up: species or system C57BL/6J mice; conditions: mice; injected into plug at days 10 and 12, examined day 17; IP-10 10 μg, IP-10dp 100 μg
Procedure: Further, to verify that IP-10dp is able to cause regression of newly formed vessels in vivo, parallel experiments were conducted on similar mice whereby GFR Matrigel supplemented with VEGF (200 ng/ml) was first injected into both the left and right side groins of mice (establishing a control location and a test location). After 10 days, the left side Matrigel plug was removed (control, n=6) and stained as above for histological examination, with the left side samples being used to establish the extent of new vessel invasion at 10 days. The remaining right side Matrigel plug in the mice was injected with either IP-10 (10 μg) or IP-10dp (100 μg) at days 10 and 12. Day 17, the right side Matrigel plugs were removed and stained for examination as above. FIG. 8D through FIG. 8G are color photographs of tissue samples, showing both 10× and 40× magnifications, taken from laboratory C57BL/6J mice. […]

[2] = test system: m-calpain in HMEC-1 cells; assay: Calpain activity by Boc-LM-CMAC cleavage; format: cell-based, human; conditions: IP-10dp 10 μM, VEGF 75 ng/ml, BAPTA/AM pre-incubation
Text: Prior research has also shown that in endothelial cells, the CXCR3-activation of PKA inhibits motility secondary to inhibitory phosphorylation of m-calpain (also known as […]). VEGF induces calpain activity in endothelial cells, and […] (also known as […]) is activated, at least in part, by ERK phosphorylation on serine 50 and in other cells μ-calpain is activated secondary to a calcium flux. In this experiment, the IP-10dp affect on m-calpain is studied by using the membrane permeable synthetic calpain substrate Boc-LM-CMAC. Since the pre-fluorescent substrate Boc-LM-CMAC can be cleaved by both m- and μ-calpain, this experiment used BAPTA/AM, a membrane permeable calcium chelator, to distinguish between m- and μ-calpain activation in cells as this blocks activation of μ-calpain but not m-calpain.
In order to establish whether the IP-10dp inhibition of motility involves this above-described blockade of calpain activation, 8 well chamber slides were coated with 0.1% gelatin for 24 hours at 4° C. The gelatin was removed and HMEC-1 cells were plated at 12,000 cells/well then incubated in 10% FBS-EBM-EC media for 24 hrs. The media was removed and the cells were further incubated for 12 hrs with 0.5% dialyzed FBS-EBM media. All cell cultures were then incubated with either BAPTA AM ([…]), or Calpain inhibitor I (CI-1, […]) at 37° C. for 30 minutes. […]

HMEC-1 cells = assay: Tube dissociation assay on GFR-Matrigel; format: cell-based, human; conditions: IP-10dp 10 μM
Procedure: For this tube dissociation assay, HMEC-1 cells were first re-suspended in 1% FBS MCDB131 media containing VEGF (75 ng/ml) and incubated on GFR-Matrigel for 24 hrs at 37° C. to allow tube formation (the average result reflected labeled “24 VEGF . . . ” in FIG. 5B). The media was removed and replaced with combinations of VEGF (75 ng/ml), IP-10 (300 ng/ml), or IP-10dp (10 μM) then incubated for another 24 hours. After 48 hours, tubes were still present in the controls treated only with VEGF (labeled 48 hr VEGF in FIG. 5B).
The cells cultures were imaged to assess tube formation using similar procedures to that described above for Experiment 3. […]
Again, quantification of the endothelial tube area for the various cell cultures was determined using MetaMorph, and the data reported in the graph are of at least N=6 and normalized to no treatment (average±SEM), with *P<0.05.

PESKAIKNLLKAVSKEMSKRSP (IP-10dp; listed as Homo sapiens) [synthetic fragment of IP-10 comprising residues 78-98, the C-terminal α-helical domain]
regression of vessels compared to saline control [1]: significant regression of vessels
VEGF mediated m-calpain activity [2]: inhibits VEGF mediated m-calpain activity
endothelial cords following treatment (HMEC-1 cells; 24-48 hrs): significant decrease in endothelial cords
dissociation of newly formed tubes (HMEC-1 cells; treatment 24-48 hrs, presence and absence of VEGF, IP-10 300 ng/ml): induce dissociation of newly formed tubes
